Laboratory results from article PMC11200976, “Pitavastatin Calcium Confers Fungicidal Properties to Fluconazole by Inhibiting Ubiquinone Biosynthesis and Generating Reactive Oxygen Species” (Antioxidants, 2024).
Structures can show the parent of a compound that is named as a salt.

What follows are compounds tested on C. albicans (assay: Broth microdilution assay of synergistic lethality with 4 μg/mL FLC (recovery on drug-free YPD)). Conditions: concentration of the compound that is synergistically lethal with 4 μg/mL FLC; C. albicans; recovery on drug-free YPD.
Format: cell-based, Candida albicans
Compound `CC(C(=O)[O-])c1cccc(Oc2ccccc2)c1.CC(C(=O)[O-])c1cccc(Oc2ccccc2)c1.O.O.[Ca+2]` (stereo not drawn) [Fenoprofen (Calcium hydrate)] has a Synergistic lethal concentrations of 100 µM.
In the case of `O=C(O)c1ccccc1Nc1cccc(C(F)(F)F)c1` [Flufenamic acid], the Synergistic lethal concentrations is reported as 100 µM.
`Cl.Cl.Fc1ccc(C(c2ccc(F)cc2)N2CCN(C/C=C/c3ccccc3)CC2)cc1` [Flunarizine (dihydrochloride)] showed a Synergistic lethal concentrations of 50 µM.
In the case of `CC(C)n1c(/C=C/C(O)CC(O)CC(=O)[O-])c(-c2ccc(F)cc2)c2ccccc21.[Na+]` (stereo not drawn) [Fluvastatin (sodium)], the Synergistic lethal concentrations is reported as 6.25 µM.
Work on `COCCCC/C(=N\OCCN)c1ccc(C(F)(F)F)cc1.O=C(O)/C=C\C(=O)O` [Fluvoxamine (maleate)] yielded a Synergistic lethal concentrations of 100 µM.
Work on `O=C(CCCN1CCC(O)(c2ccc(Cl)cc2)CC1)c1ccc(F)cc1` [Haloperidol] yielded a Synergistic lethal concentrations of 100 µM.
Compound `CCCCCCc1ccc(O)cc1O` [Hexylresorcinol] has a Synergistic lethal concentrations of 12.5 µM.
`Cl.Cl.OCCOCCN1CCN(C(c2ccccc2)c2ccc(Cl)cc2)CC1` (stereo not drawn) [Hydroxyzine (dihydrochloride)] was tested, and the Synergistic lethal concentrations was 100 µM.
`O=C(O)c1cc2ccccc2c(Cc2c(O)c(C(=O)O)cc3ccccc23)c1O.OCCOCCN1CCN(C(c2ccccc2)c2ccc(Cl)cc2)CC1` [Hydroxyzine (pamoate)] gave a Synergistic lethal concentrations of 100 µM.
In the case of `COc1ccc2c(c1)c(CC(=O)O)c(C)n2C(=O)c1ccc(Cl)cc1` [Indomethacin], the Synergistic lethal concentrations is reported as 100 µM.
Compound `C/C=C(/C)C(=O)O[C@H]1C(C)=C[C@]23C(=O)[C@@H](C=C(CO)[C@@H](O)[C@]12O)[C@H]1[C@@H](C[C@H]3C)C1(C)C` [Ingenol Mebutate] has a Synergistic lethal concentrations of 100 µM.
With `COC(=O)N[C@H](C(=O)N1CC2(CC2)C[C@H]1c1nc(-c2ccc3c(c2)C(F)(F)c2cc(-c4ccc5[nH]c([C@@H]6[C@H]7CC[C@H](C7)N6C(=O)[C@@H](NC(=O)OC)C(C)C)nc5c4)ccc2-3)c[nH]1)C(C)C` [Ledipasvir] the Synergistic lethal concentrations was 100 µM.
`CCOC(=O)C1=C(COCCN)NC(C)=C(C(=O)OC)[C@@H]1c1ccccc1Cl.O=S(=O)(O)c1ccccc1` [Levamlodipine besylate] was tested, and the Synergistic lethal concentrations was 100 µM.
Work on `O=C(NC1CCN(CCCCC2(C(=O)NCC(F)(F)F)c3ccccc3-c3ccccc32)CC1)c1ccccc1-c1ccc(C(F)(F)F)cc1` [Lomitapide] yielded a Synergistic lethal concentrations of 6.25 µM.
Compound `CC[C@H](C)C(=O)O[C@H]1C[C@@H](C)C=C2C=C[C@H](C)[C@H](CC[C@@H]3C[C@@H](O)CC(=O)O3)[C@H]21` [Lovastatin] has a Synergistic lethal concentrations of 100 µM.
`CN1CCN(C2=Nc3ccccc3Oc3ccc(Cl)cc32)CC1` [Loxapine] showed a Synergistic lethal concentrations of 100 µM.
Work on `C=CCc1ccc(O)c(-c2cc(CC=C)ccc2O)c1` [Magnolol] yielded a Synergistic lethal concentrations of 12.5 µM.
`CNCCCC12CCC(c3ccccc31)c1ccccc12.Cl` [Maprotiline (hydrochloride)] was tested, and the Synergistic lethal concentrations was 50 µM.
With `CN1CCc2c(c3ccccc3n2Cc2ccccc2)C1.CN1CCc2c(c3ccccc3n2Cc2ccccc2)C1.O=S(=O)(O)c1cccc2c(S(=O)(=O)O)cccc12` [Mebhydrolin (napadisylate)] the Synergistic lethal concentrations was 100 µM.
`CN1CCc2c(c3ccccc3n2Cc2ccccc2)C1` [Mebhydrolin] was tested, and the Synergistic lethal concentrations was 100 µM.
For `Cl.OC(c1cc(C(F)(F)F)nc2c(C(F)(F)F)cccc12)C1CCCCN1` (stereo not drawn) [Mefloquine (hydrochloride)], the Synergistic lethal concentrations was 25 µM.
With `CN(C)CCC=C1c2ccccc2C(C)(C)c2ccccc21.Cl` [Melitracen (hydrochloride)] the Synergistic lethal concentrations was 50 µM.
`CC1=CC(=O)c2ccccc2C1=O` [Menadione] was tested, and the Synergistic lethal concentrations was 100 µM.
With `c1ccc2c(c1)Sc1ccccc1N2CC1CN2CCC1CC2` (stereo not drawn) [Mequitazine] the Synergistic lethal concentrations was 25 µM.
Work on `CN1C[C@H](CNC(=O)OCc2ccccc2)C[C@@H]2c3cccc4c3c(cn4C)C[C@H]21` [Metergoline] yielded a Synergistic lethal concentrations of 100 µM.
In the case of `CN1CCCC(CC2c3ccccc3Sc3ccccc32)C1.Cl.O` (stereo not drawn) [Metixene hydrochloride hydrate], the Synergistic lethal concentrations is reported as 25 µM.
Work on `CCCCCCCCCCCCCCCCOP(=O)([O-])OCC[N+](C)(C)C` [Miltefosine] yielded a Synergistic lethal concentrations of 100 µM.
Work on `CCCOc1ccc(S(=O)(=O)N2CCN(CCO)CC2)cc1-c1nc2c(CCC)cn(CC)c2c(=O)[nH]1.Cl.Cl` [Mirodenafil (dihydrochloride)] yielded a Synergistic lethal concentrations of 100 µM.
Work on `NC(=O)Cc1cccc(C(=O)c2ccccc2)c1N` [Nepafenac] yielded a Synergistic lethal concentrations of 100 µM.
`COC(=O)C1=C(C#N)NC(C)=C(C(=O)OC(C)C)C1c1cccc([N+](=O)[O-])c1` (stereo not drawn) [Nilvadipine] showed a Synergistic lethal concentrations of 100 µM.
Compound `COC(=O)c1ccc2c(c1)NC(=O)/C2=C(\Nc1ccc(N(C)C(=O)CN2CCN(C)CC2)cc1)c1ccccc1` [Nintedanib] has a Synergistic lethal concentrations of 100 µM.
In the case of `CNCCC=C1c2ccccc2CCc2ccccc21.Cl` [Nortriptyline (hydrochloride)], the Synergistic lethal concentrations is reported as 100 µM.
For `CCCCCCCCN=c1ccn(CCCCCCCCCCn2ccc(=NCCCCCCCC)cc2)cc1.Cl.Cl` [Octenidine (dihydrochloride)], the Synergistic lethal concentrations was 1.5625 µM.
`C=CC(=O)Nc1cccc(Oc2nc(Nc3ccc(N4CCN(C)CC4)cc3)nc3ccsc23)c1` [Olmutinib] was tested, and the Synergistic lethal concentrations was 100 µM.
With `C=CC(=O)Nc1cc(Nc2nccc(-c3cn(C)c4ccccc34)n2)c(OC)cc1N(C)CCN(C)C.CS(=O)(=O)O.CS(=O)(=O)O` [Osimertinib (dimesylate)] the Synergistic lethal concentrations was 100 µM.
With `C=CC(=O)Nc1cc(Nc2nccc(-c3cn(C)c4ccccc34)n2)c(OC)cc1N(C)CCN(C)C.CS(=O)(=O)O` [Osimertinib mesylate] the Synergistic lethal concentrations was 50 µM.
Compound `C=CC(=O)Nc1cc(Nc2nccc(-c3cn(C)c4ccccc34)n2)c(OC)cc1N(C)CCN(C)C` [Osimertinib] has a Synergistic lethal concentrations of 100 µM.
For `CCCCCCCCOc1ccccc1C(=O)Nc1ccc(C(=O)OCC[N+](C)(CC)CC)cc1.[Br-]` [Otilonium (bromide)], the Synergistic lethal concentrations was 6.25 µM.
`O=C(O)CCc1nc(-c2ccccc2)c(-c2ccccc2)o1` [Oxaprozin] was tested, and the Synergistic lethal concentrations was 100 µM.
In the case of `CN(C(=O)CN(CCO)CC(=O)N(C)C(C)(C)Cc1ccccc1)C(C)(C)Cc1ccccc1` [Oxethazaine], the Synergistic lethal concentrations is reported as 50 µM.
With `Cc1[nH]c2ccccc2c1CCNCc1ccc(/C=C/C(=O)NO)cc1` [Panobinostat] the Synergistic lethal concentrations was 100 µM.
`Cl.Fc1ccc([C@@H]2CCNC[C@H]2COc2ccc3c(c2)OCO3)cc1` [Paroxetine (hydrochloride)] showed a Synergistic lethal concentrations of 50 µM.
With `C1CCC(C(CC2CCCCN2)C2CCCCC2)CC1` (stereo not drawn) [Perhexiline maleate] the Synergistic lethal concentrations was 50 µM.
With `N#Cc1ccc2c(c1)N(CCCN1CCC(O)CC1)c1ccccc1S2` [Pericyazine] the Synergistic lethal concentrations was 100 µM.
Compound `OCCN1CCN(CCCN2c3ccccc3Sc3ccc(Cl)cc32)CC1` [Perphenazine] has a Synergistic lethal concentrations of 25 µM.
`CN1CCC(=C2c3ccccc3Sc3ccccc32)CC1` [Pimethixene maleate] was tested, and the Synergistic lethal concentrations was 12.5 µM.
Compound `Cc1cc(CC(C)CC(C)(C)C)n(O)c(=O)c1.NCCO` (stereo not drawn) [Piroctone olamine] has a Synergistic lethal concentrations of 100 µM.
`O=C([O-])C[C@H](O)C[C@H](O)/C=C/c1c(C2CC2)nc2ccccc2c1-c1ccc(F)cc1.O=C([O-])C[C@H](O)C[C@H](O)/C=C/c1c(C2CC2)nc2ccccc2c1-c1ccc(F)cc1.[Ca+2]` [Pitavastatin (Calcium)] was tested, and the Synergistic lethal concentrations was 1.5625 µM.
`CN1CCC(=C2c3ccccc3CCc3sccc32)CC1` [Pizotifen] showed a Synergistic lethal concentrations of 100 µM.
Compound `Cc1ccc(C(=O)Nc2ccc(CN3CCN(C)CC3)c(C(F)(F)F)c2)cc1C#Cc1cnc2cccnn12` [Ponatinib] has a Synergistic lethal concentrations of 100 µM.
Compound `CO[C@]1(C(=O)N[C@@H](C)c2ccc(-n3cc(F)cn3)nc2)CC[C@H](c2nc(C)cc(Nc3cc(C)[nH]n3)n2)CC1` [Pralsetinib] has a Synergistic lethal concentrations of 100 µM.
`CCCCOc1ccc(OCCCN2CCOCC2)cc1.Cl` [Pramocaine (hydrochloride)] gave a Synergistic lethal concentrations of 100 µM.
`[H]/N=C(\N/C(=N/[H])Nc1ccc(Cl)cc1)NC(C)C` [Proguanil] was tested, and the Synergistic lethal concentrations was 100 µM.
`CNCCCC1c2ccccc2C=Cc2ccccc21.Cl` [Protriptyline (hydrochloride)] showed a Synergistic lethal concentrations of 100 µM.
`O=C(O)/C=C/C(=O)O.OCCOCCN1CCN(C2=Nc3ccccc3Sc3ccccc32)CC1.OCCOCCN1CCN(C2=Nc3ccccc3Sc3ccccc32)CC1` [Quetiapine (hemifumarate)] showed a Synergistic lethal concentrations of 100 µM.
In the case of `OCCOCCN1CCN(C2=Nc3ccccc3Sc3ccccc32)CC1` [Quetiapine], the Synergistic lethal concentrations is reported as 100 µM.
With `CC(C)(C)c1cc(NC(=O)Nc2ccc(-c3cn4c(n3)sc3cc(OCCN5CCOCC5)ccc34)cc2)no1` [Quizartinib] the Synergistic lethal concentrations was 6.25 µM.
For `COC(=O)[C@H]1[C@H]2C[C@@H]3c4[nH]c5cc(OC)ccc5c4CCN3C[C@H]2C[C@@H](OC(=O)c2cc(OC)c(OC)c(OC)c2)[C@@H]1OC.Cl` [Reserpine (hydrochloride)], the Synergistic lethal concentrations was 100 µM.
Work on `COC(=O)[C@H]1[C@H]2C[C@@H]3c4[nH]c5cc(OC)ccc5c4CCN3C[C@H]2C[C@@H](OC(=O)c2cc(OC)c(OC)c(OC)c2)[C@@H]1OC` [Reserpine] yielded a Synergistic lethal concentrations of 50 µM.
In the case of `C[C@@H](OC[C@@]1(c2ccccc2)CC[C@]2(CCC(=O)N2)CN1)c1cc(C(F)(F)F)cc(C(F)(F)F)c1` [Rolapitant], the Synergistic lethal concentrations is reported as 12.5 µM.
`CC(C)c1nc(N(C)S(C)(=O)=O)nc(-c2ccc(F)cc2)c1/C=C/[C@@H](O)C[C@@H](O)CC(=O)[O-].CC(C)c1nc(N(C)S(C)(=O)=O)nc(-c2ccc(F)cc2)c1/C=C/[C@@H](O)C[C@@H](O)CC(=O)[O-].[Ca+2]` [Rosuvastatin (Calcium)] showed a Synergistic lethal concentrations of 50 µM.
For `OCc1cc(C(O)CNCCCCCCOCCCCc2ccccc2)ccc1O` (stereo not drawn) [Salmeterol], the Synergistic lethal concentrations was 100 µM.
`CC(C)(C)NC(=O)[C@@H]1C[C@@H]2CCCC[C@@H]2CN1C[C@@H](O)[C@H](Cc1ccccc1)NC(=O)[C@H](CC(N)=O)NC(=O)c1ccc2ccccc2n1` [Saquinavir] showed a Synergistic lethal concentrations of 50 µM.
